Test results from PMC4029159 (Journal of medicinal chemistry, 2013).
Where “and” joins values, the source holds several entries; their conditions need not be identical. Equal entries are not always repeated.

Legend:
MMP3 = MMP3 (Homo sapiens, UniProt P08254); assay: MMP assay; format: biochemical; conditions: 10µM
MMP14 = MMP14 (Homo sapiens, UniProt P50281); assay: MMP assay; format: biochemical; conditions: 10µM
[1] = system: tubulin acetylation (HDAC6 inhibition) in LNCaP cell line; assay: Western blot analysis for tubulin acetylation; format: cell-based; conditions: LNCaP cells, 4 hours, 20 µM and IC50 concentration
Jurkat J.γ = assay: Cell viability assay; format: cell-based
MMP7 = biological target: T1, MMP7 (Homo sapiens, UniProt P09237); assay: MMP assay; format: biochemical; conditions: 10µM
T1 sequence (P09237 95-267): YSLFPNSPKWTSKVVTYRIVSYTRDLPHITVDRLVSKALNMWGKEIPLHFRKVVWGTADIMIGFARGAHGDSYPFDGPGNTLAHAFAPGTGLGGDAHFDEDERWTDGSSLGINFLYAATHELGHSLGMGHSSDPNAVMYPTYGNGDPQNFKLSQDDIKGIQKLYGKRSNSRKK

MMP2 = MMP2 (Homo sapiens, UniProt P08253); assay: MMP assay; format: biochemical; conditions: 10µM
Chain of MMP2 (P08253 110-446 limits assumed): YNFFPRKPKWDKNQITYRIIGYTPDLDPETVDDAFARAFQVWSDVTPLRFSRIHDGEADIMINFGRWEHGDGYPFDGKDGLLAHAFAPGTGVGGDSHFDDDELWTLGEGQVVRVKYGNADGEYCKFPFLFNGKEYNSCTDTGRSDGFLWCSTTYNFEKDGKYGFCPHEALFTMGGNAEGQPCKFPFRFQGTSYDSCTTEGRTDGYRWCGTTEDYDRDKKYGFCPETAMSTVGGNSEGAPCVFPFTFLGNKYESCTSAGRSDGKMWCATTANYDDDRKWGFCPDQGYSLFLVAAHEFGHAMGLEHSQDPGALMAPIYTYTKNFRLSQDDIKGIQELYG

HDAC1 = HDAC1 (Homo sapiens, UniProt Q13547); assay: HDAC inhibition by SAMDI mass spectrometry, HDAC1; format: biochemical
Chain of HDAC1 (Q13547 whole entry): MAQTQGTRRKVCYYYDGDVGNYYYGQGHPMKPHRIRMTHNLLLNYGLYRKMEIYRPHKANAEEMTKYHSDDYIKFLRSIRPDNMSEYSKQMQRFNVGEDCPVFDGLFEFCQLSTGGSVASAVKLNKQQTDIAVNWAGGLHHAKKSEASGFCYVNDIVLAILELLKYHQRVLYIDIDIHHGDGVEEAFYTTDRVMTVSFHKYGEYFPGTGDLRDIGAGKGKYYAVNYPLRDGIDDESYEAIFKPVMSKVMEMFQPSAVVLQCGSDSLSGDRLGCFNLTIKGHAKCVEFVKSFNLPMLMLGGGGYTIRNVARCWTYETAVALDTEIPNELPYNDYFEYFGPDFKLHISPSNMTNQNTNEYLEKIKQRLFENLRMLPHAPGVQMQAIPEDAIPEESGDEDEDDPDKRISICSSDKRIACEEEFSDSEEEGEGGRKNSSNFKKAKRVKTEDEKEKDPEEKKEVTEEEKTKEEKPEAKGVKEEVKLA

MMP9 = MMP9 (Homo sapiens, UniProt P14780); assay: MMP assay; format: biochemical; conditions: 10µM
Chain of MMP9 (P14780 107-444 limits assumed): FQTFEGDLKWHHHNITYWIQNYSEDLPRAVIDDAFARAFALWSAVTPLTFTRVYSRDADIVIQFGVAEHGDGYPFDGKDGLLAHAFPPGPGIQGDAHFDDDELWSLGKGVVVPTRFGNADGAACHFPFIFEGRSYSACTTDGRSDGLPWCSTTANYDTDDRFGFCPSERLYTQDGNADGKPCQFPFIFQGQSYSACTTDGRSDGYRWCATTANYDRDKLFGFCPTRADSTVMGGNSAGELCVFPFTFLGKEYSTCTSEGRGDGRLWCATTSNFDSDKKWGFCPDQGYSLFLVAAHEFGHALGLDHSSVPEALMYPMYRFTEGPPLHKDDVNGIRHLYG

MMP13 = MMP13 (Homo sapiens, UniProt P45452); assay: MMP assay; format: biochemical; conditions: 10µM
MMP1 = biological target: T2, MMP1 (Homo sapiens, UniProt P03956); assay: MMP assay; format: biochemical; conditions: 10µM
T2 sequence (P03956 100-269 limits assumed): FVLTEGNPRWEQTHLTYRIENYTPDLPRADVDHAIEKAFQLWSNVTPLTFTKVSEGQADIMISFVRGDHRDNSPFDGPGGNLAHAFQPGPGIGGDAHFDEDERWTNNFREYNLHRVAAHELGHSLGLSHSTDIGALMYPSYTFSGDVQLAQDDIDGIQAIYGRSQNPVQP

Jurkat = assay: Cell viability assay; format: cell-based
LNCaP = assay: Cell viability assay; format: cell-based
DU-145 = assay: Cell viability assay; format: cell-based; conditions: for Fold less cytotoxic than 14e, DU145: compared with 14e
HDAC6 = biological target: T3, HDAC6 (Homo sapiens, UniProt Q9UBN7); assay: HDAC inhibition by SAMDI mass spectrometry, HDAC6; format: biochemical
T3 sequence (Q9UBN7 1-1215): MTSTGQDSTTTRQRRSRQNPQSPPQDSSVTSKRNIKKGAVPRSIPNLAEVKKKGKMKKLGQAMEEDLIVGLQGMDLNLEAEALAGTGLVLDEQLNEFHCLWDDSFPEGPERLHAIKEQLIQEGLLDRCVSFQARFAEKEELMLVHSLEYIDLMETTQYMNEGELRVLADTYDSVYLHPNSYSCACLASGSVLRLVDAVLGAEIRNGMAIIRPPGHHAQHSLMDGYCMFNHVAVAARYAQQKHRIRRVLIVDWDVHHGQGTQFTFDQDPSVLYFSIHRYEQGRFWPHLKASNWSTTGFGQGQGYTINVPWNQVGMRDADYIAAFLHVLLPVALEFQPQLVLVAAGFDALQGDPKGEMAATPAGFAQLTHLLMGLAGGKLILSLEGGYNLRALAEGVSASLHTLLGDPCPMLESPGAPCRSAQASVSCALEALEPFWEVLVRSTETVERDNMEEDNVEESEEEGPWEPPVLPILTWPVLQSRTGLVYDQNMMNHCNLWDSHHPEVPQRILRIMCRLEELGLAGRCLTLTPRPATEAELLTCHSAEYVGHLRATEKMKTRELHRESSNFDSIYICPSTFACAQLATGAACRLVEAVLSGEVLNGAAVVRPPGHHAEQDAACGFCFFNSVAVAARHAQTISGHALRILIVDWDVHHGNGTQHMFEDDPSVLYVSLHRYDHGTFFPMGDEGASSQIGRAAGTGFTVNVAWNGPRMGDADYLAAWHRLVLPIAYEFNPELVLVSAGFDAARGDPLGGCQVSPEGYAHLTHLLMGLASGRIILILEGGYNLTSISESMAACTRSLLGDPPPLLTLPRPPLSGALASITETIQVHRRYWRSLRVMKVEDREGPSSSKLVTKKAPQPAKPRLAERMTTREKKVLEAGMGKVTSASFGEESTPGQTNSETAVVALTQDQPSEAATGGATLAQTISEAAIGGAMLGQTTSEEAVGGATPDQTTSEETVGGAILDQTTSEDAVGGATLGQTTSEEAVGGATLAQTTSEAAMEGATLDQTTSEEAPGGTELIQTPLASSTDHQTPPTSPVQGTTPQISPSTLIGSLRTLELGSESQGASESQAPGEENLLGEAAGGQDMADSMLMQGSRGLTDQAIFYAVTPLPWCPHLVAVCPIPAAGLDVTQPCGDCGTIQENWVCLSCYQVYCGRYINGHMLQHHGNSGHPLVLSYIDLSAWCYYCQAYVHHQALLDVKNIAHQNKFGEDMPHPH

Chain of MMP3 (P08254 100-272 limits assumed): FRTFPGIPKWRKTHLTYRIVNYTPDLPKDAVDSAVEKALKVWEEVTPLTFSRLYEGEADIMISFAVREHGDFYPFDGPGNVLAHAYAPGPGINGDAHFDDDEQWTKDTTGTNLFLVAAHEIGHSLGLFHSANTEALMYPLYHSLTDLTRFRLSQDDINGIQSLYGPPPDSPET

Oc1cccn(CCCCCn2cc(-c3ccccc3)nn2)c1=S [Compound 10d, 1-Phenyltriazolylpentyl-3-hydroxypyridin-2-thione]
Effect on MMP3 activity (MMP3): inactive
Effect on MMP14 activity (MMP14): inactive
Tubulin acetylation level (Western blot) [1]: increased tubulin acetylation but to a lesser extent than SAHA
IC50 (Jurkat J.γ; Homo sapiens, Jurkat, 72 h, read-out: Cellular IC50 Jurkat J.γ, 72 hours, MTS): 1000 nM
Effect on MMP7 activity (MMP7): inactive
Effect on MMP2 activity (MMP2): inactive
HDAC1 inhibition, in words (HDAC1): inactive
Effect on MMP9 activity (MMP9): inactive
Effect on MMP13 activity (MMP13): halved
Effect on MMP1 activity (MMP1): inactive

Oc1cccn(CCCCCCCn2cc(-c3ccccc3)nn2)c1=S [Compound 10f, 1-Phenyltriazolylheptyl-3-hydroxypyridin-2-thione]
Fold less cytotoxic than 14e, wild type Jurkat (Jurkat; relative to 14e): 3 fold
Fold less cytotoxic than 10d, wild type Jurkat (Jurkat; relative to 10d): 3 fold
Fold less cytotoxic than 14e, LNCaP (LNCaP; compared with 14e): 3 fold
Fold less cytotoxic than 10d, LNCaP (LNCaP; compared with 10d): 2 fold
Fold less cytotoxic than 14e, DU145 (DU-145): 3 fold
Fold less cytotoxic than 10d, DU145 (DU-145; compared with 10d): 2 fold

CN1CCc2c(c3ccccc3n2Cc2ccc(C(=O)NO)cc2)C1 [Tubastatin A, reference compound]
Activity against Jurkat Jγ, in words (Jurkat J.γ): inactive
Fold less potent than 10d and 14e, LNCaP (LNCaP; relative to 10d and 14e): 2 to 3 fold

N#Cc1cccc(-c2cn(CCCCCn3cccc(O)c3=S)nn2)c1 [Compound 14e, 1-(3-Benzonitrile)triazolylpentyl-3-hydroxypyridin-2-thione]
Effect on MMP3 activity (MMP3): inactive
Effect on MMP14 activity (MMP14): inactive
HDAC6 potency, fold more effective than 14b (HDAC6; relative to 14b): 3 fold
HDAC6 potency, fold more effective than 10d (HDAC6; relative to 10d): 2.5 fold and 3 fold
Tubulin acetylation level (Western blot) [1]: increased tubulin acetylation but to a lesser extent than SAHA
Effect on MMP7 activity (MMP7): inactive
Effect on MMP2 activity (MMP2): inactive
Fold more potent than 10d, LNCaP (LNCaP; relative to 10d): about 2 fold
HDAC1 inhibition, in words (HDAC1): inactive
Effect on MMP9 activity (MMP9): inactive
Fold more potent than 10d, DU145 (DU-145; relative to 10d): about 2 fold
Effect on MMP13 activity (MMP13): halved
Effect on MMP1 activity (MMP1): inactive

Cc1ccccc1-c1cn(CCCCCn2cccc(O)c2=S)nn1 [Compound 14c, 1-(2-Tolyl)triazolylpentyl-3-hydroxypyridin-2-thione]
Fold less cytotoxic than 14e, DU145 (DU-145): 2 fold

O=C(CCCCCCC(=O)Nc1ccccc1)NO [SAHA, suberoylanilide hydroxamic acid]
Activity against Jurkat Jγ, in words (Jurkat J.γ): inactive
